Measured values from patent US20070129281A1, “Pharmaceutical compounds” (priority 2003, published 2007).
“Also recorded” adds a separate entry of the source.

Target: T1, PTP1B catalytic domain (residues 1-321) (Homo sapiens, UniProt P18031)
T1 construct: crystallisation of the catalytic domain of PTP1B (residues 1-321) were based on literature conditions; made in house; host or cells: E. coli BL21(DE3), vector pET19b
T1 sequence (P18031 1-321): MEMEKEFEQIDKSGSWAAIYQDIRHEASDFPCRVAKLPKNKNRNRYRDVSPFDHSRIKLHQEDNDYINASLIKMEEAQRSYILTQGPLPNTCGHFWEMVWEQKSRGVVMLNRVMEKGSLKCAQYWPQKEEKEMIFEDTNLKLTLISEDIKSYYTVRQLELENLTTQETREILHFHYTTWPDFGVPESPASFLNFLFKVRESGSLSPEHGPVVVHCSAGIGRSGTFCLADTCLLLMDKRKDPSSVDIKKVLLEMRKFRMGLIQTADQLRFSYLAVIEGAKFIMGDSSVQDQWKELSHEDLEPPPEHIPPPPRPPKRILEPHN
Assay: Crystal soaking of PTP1B crystals with X-ray structure determination (oxidation state of Cys215)
Conditions: for State of the catalytic Cys215 / active site of PTP1B in the crystal after soaking (X-ray data): crystals soaked about 24 hours in mother liquor without DTT containing 100 mM compound
Protocol: For overnight soaking experiments crystals were transferred into a standard mother liquor containing 16% PEG 4000, 0.1 M HEPES (pH 7.5), 0.2 M magnesium acetate, 10 mM DTT and the compound of interest (See Table 3 below).
All data were collected at 100 K. Data sets of sulfenic- sulfinic- and sulfonic acid PTP1B derivatives were automatically collected on a Jupiter140 CCD detector mounted on a RU3HR rotating anode generator equipped with an ACTOR sample-changing robot (RigakuMSC, The Woodlands Tex., USA). They were processed and scaled using D*TREK^21 and converted to structure factors using programs from the CCP4 suite^22.
Oxidation of Cys215 to the sulfenyl-amide derivative was carried out by soaking crystals for approximately 24 hours in mother liquor without DTT, but containing 100 mM 2-phenyl-isoxazolidine-3,5-dione. Data were collected at station 14.1 (SRS, Daresbury) and processed and scaled using MOSFLM/SCALA^22.
Reversibility of the sulfenyl-amide derivative was checked by first soaking two crystals in 100 mM 2-phenyl-isoxazolidine-3,5-dione for 24 hours.
All results were evaluated using the graphics programs QUANTA (Accelrys, San Diego Calif., USA) and Astexviewer™^23. Initial refinement was always carried out using the CCP4-based Astex automatic refinement scripts, followed by rounds of positional and B-factor refinement with REFMAC5^22 alternated with manual rebuilding steps using QUANTA.

| Structure (SMILES) | State of the catalytic Cys215 / active site of PTP1B in the crystal after soaking (X-ray data) | State of the catalytic Cys215 / active site of PTP1B in the crystal after soaking (X-ray data) (listed as 2-Phenyl-isoxazolidine-3,5-dione) | Active site conformation of sulfenyl-amide PTP1B crystal after back soaking (reversibility, X-ray data) (back soaking 24 hours in mother liquor containing 20 mM reduced glutathione, after a 100 mM 2-phenyl-isoxazolidine-3,5-dione soak) |
| --- | --- | --- | --- |
| O=C1CC(=O)N(c2ccccc2)O1 [2-phenyl-isoxazolidine-3,5-dione] | Sulfenyl-amide formation was confirmed | confirmed the formation of the sulfenyl-amide bond |  |
| N[C@@H](CCC(=O)N[C@@H](CS)C(=O)NCC(=O)O)C(=O)O [reduced glutathione, glutathione] |  |  | entire active site back in its native conformation; also recorded: confirmed the active site in its native conformation |
